pIC50: −log10 of the molar value.
System: CAL51 cell proliferation
Assay: Cell Titer Glo Proliferation Assay (CAL51)
Format: cell-based, human
Conditions: Homo sapiens, CAL-51; CAL51 cell proliferation, 72 h, Cell Titer Glo luminescence; read-out: Act. Level
Outline: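 CAL51 triple-negative breast cancer cells in DMEM or RPMI with 10% FBS were treated after overnight culture with serially diluted compound at 0.2% final DMSO. After 72 h, viability was read as CellTiter-Glo luminescence.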

| Structure (SMILES) | pIC50 |
| --- | --- |
| COc1cc(C(=O)NN2CCCCC2)ccc1Nc1nc(OC2CCCC2)c2c(-c3ccc4nc(C)oc4c3)c[nH]c2n1 [Example 292, 4-(4-(cyclopentyloxy)-5-(2-methylbenzo[d]oxazol-6-yl)-7H-pyrrolo[2,3-d]pyrimidin-2-ylamino)-3-methoxy-N-(piperidin-1-yl)benzamide] | 6.40 to 7.00 |
| CNC(=O)c1ccc(Nc2nc(OC3CCOCC3)c3c(-c4ccc5nc(C)n(C)c5c4)c[nH]c3n2)c(OC)c1 [Example 148, 4-(5-(1,2-dimethyl-1H-benzo[d]imidazol-6-yl)-4-(tetrahydro-2H-pyran-4-yloxy)-7H-pyrrolo[2,3-d]pyrimidin-2-ylamino)-3-methoxy-N-methylbenzamide] | > 7.00 |
| COc1cc(C(N)=O)ccc1Nc1nc(OC2CCCC2)c2c(-c3ccc(O)cc3)c[nH]c2n1 [Example 44, 4-(4-(cyclopentyloxy)-5-(4-hydroxyphenyl)-7H-pyrrolo[2,3-d]pyrimidin-2-ylamino)-3-methoxybenzamide] | > 7.00 |
| CNC(=O)c1ccc(Nc2nc(OC3CCOCC3)c3c(-c4cccc([C@H](C)O)c4)c[nH]c3n2)c(OC)c1 [Example 175, (S)-4-(5-(3-(1-hydroxyethyl)phenyl)-4-(tetrahydro-2H-pyran-4-yloxy)-7H-pyrrolo[2,3-d]pyrimidin-2-ylamino)-3-methoxy-N-methylbenzamide] | 6.40 to 7.00 |
| CNC(=O)c1ccc(Nc2nc(OC3CCCC3)c3c(-c4ccc5[nH]c(=O)oc5c4)c[nH]c3n2)c(OC)c1 [Example 299, 4-(4-(cyclopentyloxy)-5-(2-oxo-2,3-dihydrobenzo[d]oxazol-6-yl)-7H-pyrrolo[2,3-d]pyrimidin-2-ylamino)-3-methoxy-N-methylbenzamide] | 6.40 to 7.00 |
| COc1cc(C(=O)NC[C@@H](C)O)ccc1Nc1nc(OC2CCCC2)c2c(-c3ccc4nc(C)oc4c3)c[nH]c2n1 [Example 230, (R)-4-(4-(cyclopentyloxy)-5-(2-methylbenzo[d]oxazol-6-yl)-7H-pyrrolo[2,3-d]pyrimidin-2-ylamino)-N-(2-hydroxypropyl)-3-methoxybenzamide] | 6.40 to 7.00 |
| CNC(=O)c1ccc(Nc2nc(OC3CCCC3)c3c(-c4cccc(CO)c4)c[nH]c3n2)c(OC)c1 [Example 26, 4-(4-(cyclopentyloxy)-5-(3-(hydroxymethyl)phenyl)-7H-pyrrolo[2,3-d]pyrimidin-2-ylamino)-3-methoxy-N-methylbenzamide] | > 7.00 |
| COc1cc(C(=O)NC2CCCOC2)ccc1Nc1nc(OC2CCCC2)c2c(-c3ccc4nc(C)oc4c3)c[nH]c2n1 (stereo not drawn) [Example 273, 4-(4-(cyclopentyloxy)-5-(2-methylbenzo[d]oxazol-6-yl)-7H-pyrrolo[2,3-d]pyrimidin-2-yl-amino)-3-methoxy-N-(tetrahydro-2H-pyran-3-yl)benzamide] | > 7.00 |
| COCCNC(=O)c1ccc(Nc2nc(OC3CCOCC3)c3c(-c4ccc5nc(C)oc5c4)c[nH]c3n2)c(OC)c1 [Example 120, 3-methoxy-N-(2-methoxyethyl)-4-(5-(2-methylbenzo[d]oxazol-6-yl)-4-(tetrahydro-2H-pyran-4-yloxy)-7H-pyrrolo[2,3-d]pyrimidin-2-ylamino)benzamide] | > 7.00 |
| COc1cc(C(=O)N[C@H]2CCC[C@H]2O)ccc1Nc1nc(OC2CCCC2)c2c(-c3ccc4nc(C)oc4c3)c[nH]c2n1 [Example 264, 4-(4-(cyclopentyloxy)-5-(2-methylbenzo[d]oxazol-6-yl)-7H-pyrrolo[2,3-d]pyrimidin-2-ylamino)-N-((1S,2R)-2-hydroxycyclopentyl)-3-methoxy-benzamide] | 6.40 to 7.00 |
| CNC(=O)c1ccc(Nc2nc(OC3CCCC3)c3c(-c4ccc(N)c(O)c4)c[nH]c3n2)c(OC)c1 [Example 294, 4-(5-(4-amino-3-hydroxyphenyl)-4-(cyclopentyloxy)-7H-pyrrolo [2,3-d]pyrimidin-2-ylamino)-3-methoxy-N-methylbenzamide] | 6.40 to 7.00 |
| CNC(=O)c1ccc(Nc2nc(OC3CCCC3)c3c(-c4cccnc4)c[nH]c3n2)c(OC)c1 [Example 58, 4-(4-(cyclopentyloxy)-5-(pyridin-3-yl)-7H-pyrrolo[2,3-d]pyrimidin-2-ylamino)-3-methoxy-N-methylbenzamide] | > 7.00 |

Source: patent US9346812B2, “Substituted pyrrolopyrimidine compounds, compositions thereof, and methods of treatment therewith” (Signal Pharmaceutical LLC, priority 2013, dated 2016)
